Measured values reported in patent US5733879A, “Peptides and proteins, process for their preparation and their use as cholesterol acceptors” (N.V. Innogenetics, S.A., priority 1992, dated 1998).
Where no end group is shown, it is not given here.

What was measured:
J774 murine macrophages = experiment: Cellular cholesterol efflux from lipid-loaded macrophages; assay type: cell-based; details: for Vmax (cholesterol efflux): phospholipid-peptide complexes, cholesterol-loaded J774 cells, 24 h; for efflux of free cholesterol into the medium: protein concentration of the complex in the medium 100 μg/ml, 24 h incubation
Protocol: J774 murine macrophages are grown in DMEM (Gibco) with addition of 10% fetal calf serum (FCS), in a 5% CO2 atmosphere. Cells are seeded in 35 mm dishes at a density of 2×10^6 /dish, grown for 18 h in 2ml DMEM-10% FCS and used as confluent monolayers. After 18 h, the cells are washed twice with DMEM and incubated with acetylated LDL at a concentration of 100 μg apo B/ml for 24 h in a medium consisting of DMEM and 10% lipoprotein deficient serum (LPDS). LPDS is prepared from fetal cell serum (Gibco) by eliminating all lipoproteins by ultracentrifugation. After loading with cholesteryl esters, cell monolayers are washed with DMEM.
The cholesteryl ester-laden cells are incubated in 2 ml DMEM supplemented with 1 g/l bovine serum albumin and containing the Sandoz 58-035 compound at a concentration of 1 μg/ml medium as inhibitor of the acyl-CoA:cholesterol acyl transferase enzyme (ACAT) in order to prevent the re-esterification of the cellular cholesterol (Brown et at., 1980). The cholesterol acceptors, i.e. the discoidal peptide-lecithin complexes were added to the medium at concentrations varying between 10 and 200 μg peptide/ml and cells were incubated for 24 h.
After incubation, cells are washed once with phosphate buffer pH 7.4, 0.15N NaGl (PBS) containing 2 g/l BSA and twice with PBS alone. Lipid extracts are prepared by addition to the cell pellet of 5 ml hexane/isopropylalcohol (3:2) (Phillips et at., 1987). Fifty μl of a cholesteryl heptadecanoate solution in chloroform at a concentration of 500 μg/ml are added as internal standard for the HPLC quantitation of cholesteryl esters. After vortex-mixing for 3 min and centrifugation at 3000 rpm for 15 rain, the organic phase supernatant is dried, the precipitate is dissolved in 1 ml chloroform and washed three times. The dry residue is finally dissolved in 50 μl of a mixture of chloroform:acetonitrile:isopropylalcohol (1:1:1), of which 20 μl are injected into the HPLC system.
The same extraction procedure is applied to 1 ml of the medium. For quantification of the unesterified cholesterol fraction, beta-sitosterol is used as internal standard according to methods known in the art.
After delipidation, cellular proteins were dissolved in 0.1M NaOH and the proteins were assayed either by the method of Lowry (Lowry et al., 1951) or with the bicinchoninic acid (BCA) reagent using a kit for protein assay manufactured by Pierce (Pierce Europe, oud-Beijerland, Holland). In both cases bovine serum albumin was used as a standard.

[1] = Electron microscopy size measurement of the lipid-peptide complexes; assay type: physicochemical; details: complex with DPPC, from electromicrographs
Protocol: Phospholipid-peptide complexes, at a protein concentration of 150 μg/ml, were negatively stained with a 20 g/l solution of potassium phosphotungstate (pH 7.4). 7 μl of the samples were applied to Formvar carbon-coated grids and examined in a Zeiss EM 10C transmission electron microscope operating at 60 kV. Particle size was determined by measuring 120 discrete particles for each sample. The mean diameter and the size distribution of the complexes were calculated.

In the case of EWLKAFYKKVLEKLKELF [M1], the “Vmax (cholesterol efflux)” value (J774 murine macrophages) is reported as 111 μg cholesterol released from t and the “Diameter MEAN ± SD” value [1] is reported as 209 ± 33 Å.

For EWLKAEYEKVLEKLKELF [M2], the “Vmax (cholesterol efflux)” value (J774 murine macrophages) was 48 μg cholesterol released from t and the “Diameter MEAN ± SD” value [1] was 173 ± 45 Å.

In the case of EWLEAFYKKVLEKLKELF [M4], the “Vmax (cholesterol efflux)” value (J774 murine macrophages) is reported as 50 μg cholesterol released from t, the “efflux of free cholesterol into the medium” value (J774 murine macrophages) is reported as 20 µg and the “Diameter MEAN ± SD” value [1] is reported as 150 ± 25 Å.

In the case of “apo AI: native plasma apo AI purified from human plasma; major apoprotein constituent of HDL”, the “Vmax (cholesterol efflux)” value (J774 murine macrophages) is reported as 52 μg cholesterol released from t, the “efflux of free cholesterol into the medium” value (J774 murine macrophages) is reported as ~8 µg and the “Diameter MEAN ± SD” value [1] is reported as 128 ± 22 Å.

For EWLKAEYEKVEEKLKELF [M3], the “Vmax (cholesterol efflux)” value (J774 murine macrophages) was 77 μg cholesterol released from t and the “Diameter MEAN ± SD” value [1] was 175 ± 55 Å.
